Results from US20240358684A1, “METHOD FOR ENHANCING INNATE IMMUNE RESPONSE” (Kyoto University, priority 2021, published 2024).

Experiments:
[1] = tested on: OAS1 rs10774671 A-allele splicing; test: RT-PCR for OAS1 alternative splicing profile in Calu-3 (A/A allele) cells; format: cell-based, human; details: Calu-3, 10 μM, 24 h
CLK1 = target: T1, CLK1 (Homo sapiens, UniProt P49759); test: Inhibition confirmation test for CLK (off-chip mobility shift assay); format: biochemical; details: ATP 10 μM; read-out: CLK1 inhibitory activity (IC50 value)
T1 construct: Enzyme activity was measured with off-chip mobility shift assay using purified CLK protein
Experimental: Enzyme activity was measured with off-chip mobility shift assay using purified CLK protein. […] The enzyme reaction was performed at room temperature for 1 hour, and the reaction was terminated by adding QuickScout Screening Assist MSA (Carna Biosciences, Inc.). A substrate peptide and a phosphorylated peptide in the enzyme reaction solution were separated and quantified using the LabChip system (Perkin-Elmer, Waltham, MA, USA), and inhibition of CLK was evaluated by calculating a product ratio using the following formula, the substrate peptide peak height (S), and the phosphorylated peptide peak height (P).
(P/(P+S)) • P: product-derived peak • S: substrate-derived peak

OAS1 splice variants = test: RNA-Seq splice-junction reads for OAS1 splice variants in Calu-3 cells; format: cell-based, human; details: Calu-3, 10 μM, 18 h
Experimental: Transcriptome analysis for compound 1-treated Calu-3 cells RNAs were extracted using RNeasy Mini kit (QIAGEN, Hilden, Germany) from Calu-3 cells, treated with 10 μM compound 1 or 0.1% DMSO for 18 h, and applied for RNA-Seq analysis. Three technical replicates for RNA-Seq, where each experiment was independently conducted three times from a stocked total RNA. RNA-seq reads were mapped to the human genome sequences (GRCh38) using STAR (ver. 2.7.1a, https://github.com/alexdobin/STAR) with ENCODE options, using the Ensembl genome annotation (ver. 102). Raw reads were counted with bam files, and TPM values were calculated using RSEM v1.2.31 (https://github.com/deweylab/RSEM). Differentially expressed genes were identified using the method described above. Differential alternative splicing (DAS) events were analyzed with the method previously described (Sakuma et al., 2015) using the rMATS program (http://rnaseq-mats.sourceforge.net/rmats4.1.1/). DAS was defined by the following criteria: FDR<0.01, read counts≥15, and delta Percent Spliced-In (PSI)≥0.05. The DAS events were compared with the gene annotation information, the event types were then classified into events on the exons constituting the productive mRNAs, events on additional exons/regions of the productive mRNAs, and others. For characterizing gene set and transcriptome profiles, the Metascape website (https://imetascape.org/) and Gene Set Enrichment Analysis (GSEA, https://ww.gsea-maigdb.org/gsea/) were used. The same samples were also used for RT-PCR.

T1 sequence (P49759 whole entry): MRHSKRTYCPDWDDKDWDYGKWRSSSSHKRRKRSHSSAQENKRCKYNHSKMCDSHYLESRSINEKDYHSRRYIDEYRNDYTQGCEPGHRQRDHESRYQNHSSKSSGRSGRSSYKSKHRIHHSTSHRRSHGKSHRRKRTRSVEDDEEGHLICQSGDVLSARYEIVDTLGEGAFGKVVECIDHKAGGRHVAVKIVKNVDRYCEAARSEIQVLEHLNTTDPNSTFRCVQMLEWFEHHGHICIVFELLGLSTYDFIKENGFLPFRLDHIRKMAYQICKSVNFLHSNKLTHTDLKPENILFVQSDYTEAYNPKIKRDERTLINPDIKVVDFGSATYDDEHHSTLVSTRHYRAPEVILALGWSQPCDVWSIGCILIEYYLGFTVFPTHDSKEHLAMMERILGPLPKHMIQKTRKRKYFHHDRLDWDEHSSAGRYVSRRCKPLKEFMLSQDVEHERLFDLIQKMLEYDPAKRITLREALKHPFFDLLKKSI

N=C1NC(=O)/C(=C/c2ccc3c(c2)CCO3)S1 [compound 1]
splice-switching for OAS1 with the A-allele (RT-PCR) [1]: suppressing p42 splicing while promoting p44a and p44b variant production | IC50 (CLK1): 21.6 nM | p42 variant suppressed (RNA-Seq) (OAS1 splice variants): 51% | p44a variant increased (RNA-Seq) (OAS1 splice variants): 130% | p44b variant increased (RNA-Seq) (OAS1 splice variants): 100%
